Reference: US7470664
Where two headings read alike, the source gives them in different places.

Conditions: 19-membered ring

With `COC(=O)[C@@H]1C[C@@H]2CN1C(=O)[C@H](C(C)(C)C)NC(=O)OCCCC#Cc1cccc3c1CN(C3)C(=O)O2` the ring closure, isolated yield (from COC(=O)[C@@H]1C[C@@H](OC(=O)N2Cc3cccc(C#CCCCOC(=O)N[C@H](C(=O)O)C(C)(C)C)c3C2)C[NH2+]1, amide bond, HATU/Et3N/DMAP, DCM, 42.0 mM, 25.0 °C, 2 steps) was 43%.
In the case of `CCCC[C@@H]1NC(=O)OCCCC=Cc2cccc3c2CN(C3)C(=O)O[C@@H]2C[C@@H](C(=O)OC)N(C2)C1=O`, the ring closure, isolated yield (from C=CCCCOC(=O)N[C@@H](CCCC)C(=O)N1C[C@H](OC(=O)N2Cc3cccc(C=C)c3C2)C[C@H]1C(=O)OC, rcm bond, Zhan catalyst I (RC-301), DCE, 5.5 mM, 100.0 °C) was 79%.
